Experiment [1] concerns the target T1, baculovirus-expressed ALK (Homo sapiens, UniProt Q9UM73).
T1 construct: host or cells: baculovirus expression system
Briefly: ALK Kinase Assay (ELISA-type, time-resolved fluorescence). In kind it is biochemical. The method in brief: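 Plates coated with phospholipase C-γ substrate (10 μg/mL in TBS); reaction started with 30 ng/ml ALK and run 15 min at 37° C. Phosphorylated substrate detected with Eu-N1-labeled PT66 antibody. IC50 from sigmoidal variable-slope fit of percent inhibition vs log concentration.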
For orientation: An ELISA detects its analyte on a solid surface through an enzyme-linked reagent.

Experiment [2] has as its target T2, c-Met (cytoplasmic domain) (Homo sapiens, UniProt P08581).
T2 construct: 10 ng/mL c-Met (cytoplasmic domain, Invitrogen Corporation #PV3143); purchased Invitrogen Corporation PV3143
The experiment in a line: c-Met Kinase Assay (same methods as for ALK, with modifications). In kind it is biochemical. A digest of the protocol:
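Plates were coated with phospholipase C-γ substrate (10 μg/mL) in TBS, and the reaction was started with 10 ng/mL c-Met cytoplasmic domain and run 15 min at 37 °C. Phosphoproduct was detected with Eu-N1-labelled PT66 antibody. IC50 came from a variable-slope sigmoidal fit of percent inhibition vs log concentration.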

The mark [3] stands for this setting: ALK kinase inhibition, 1 μM ATP (Km level), read-out: ALK Activity.
Where [4] appears, read: c-Met kinase inhibition, 1 μM ATP (Km level), read-out: cMet Activity.
The mark [5] stands for this setting: ALK kinase inhibition, 1 μM ATP, read-out: ALK Activity.
Setting [6] is: c-Met kinase inhibition, 1 μM ATP, read-out: cMet Activity.
Where [7] appears, read: 1 μM ATP (Km level), read-out: ALK Activity (ALK Kinase Inhibition, IC50).
The mark [8] stands for this setting: 1 μM ATP (Km level), read-out: cMet Activity (c-Met Kinase Inhibition, IC50).
Where [9] appears, read: 1 μM ATP (Km level), 30 ng/ml ALK, 37° C., 15 minutes, read-out: ALK Activity (ALK kinase inhibition, IC50 class).
Where [10] appears, read: 1 μM ATP (Km level), 10 ng/mL c-Met, read-out: cMet Activity (c-Met kinase inhibition, IC50 class).

Data on 22 molecules can be found in US8148391B2 (Cephalon, Inc., priority 2006, dated 2012).

Structures can show the parent of a compound that is named as a salt. Where two headings read alike, the source gives them in different places. Some results are limits rather than exact numbers.

T2 sequence (P08581 956-1390 limits assumed): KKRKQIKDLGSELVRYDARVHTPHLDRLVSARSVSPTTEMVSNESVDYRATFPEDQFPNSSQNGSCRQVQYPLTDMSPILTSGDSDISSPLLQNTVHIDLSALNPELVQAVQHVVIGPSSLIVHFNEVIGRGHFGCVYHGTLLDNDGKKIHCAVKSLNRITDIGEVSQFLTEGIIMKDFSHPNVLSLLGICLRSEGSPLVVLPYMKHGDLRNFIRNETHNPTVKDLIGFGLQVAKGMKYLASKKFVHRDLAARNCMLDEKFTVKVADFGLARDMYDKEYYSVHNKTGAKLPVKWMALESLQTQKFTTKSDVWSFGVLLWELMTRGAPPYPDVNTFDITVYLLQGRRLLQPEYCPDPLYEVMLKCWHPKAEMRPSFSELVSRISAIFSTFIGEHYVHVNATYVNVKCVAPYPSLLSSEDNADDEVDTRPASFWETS
T1 sequence (Q9UM73 19-1620): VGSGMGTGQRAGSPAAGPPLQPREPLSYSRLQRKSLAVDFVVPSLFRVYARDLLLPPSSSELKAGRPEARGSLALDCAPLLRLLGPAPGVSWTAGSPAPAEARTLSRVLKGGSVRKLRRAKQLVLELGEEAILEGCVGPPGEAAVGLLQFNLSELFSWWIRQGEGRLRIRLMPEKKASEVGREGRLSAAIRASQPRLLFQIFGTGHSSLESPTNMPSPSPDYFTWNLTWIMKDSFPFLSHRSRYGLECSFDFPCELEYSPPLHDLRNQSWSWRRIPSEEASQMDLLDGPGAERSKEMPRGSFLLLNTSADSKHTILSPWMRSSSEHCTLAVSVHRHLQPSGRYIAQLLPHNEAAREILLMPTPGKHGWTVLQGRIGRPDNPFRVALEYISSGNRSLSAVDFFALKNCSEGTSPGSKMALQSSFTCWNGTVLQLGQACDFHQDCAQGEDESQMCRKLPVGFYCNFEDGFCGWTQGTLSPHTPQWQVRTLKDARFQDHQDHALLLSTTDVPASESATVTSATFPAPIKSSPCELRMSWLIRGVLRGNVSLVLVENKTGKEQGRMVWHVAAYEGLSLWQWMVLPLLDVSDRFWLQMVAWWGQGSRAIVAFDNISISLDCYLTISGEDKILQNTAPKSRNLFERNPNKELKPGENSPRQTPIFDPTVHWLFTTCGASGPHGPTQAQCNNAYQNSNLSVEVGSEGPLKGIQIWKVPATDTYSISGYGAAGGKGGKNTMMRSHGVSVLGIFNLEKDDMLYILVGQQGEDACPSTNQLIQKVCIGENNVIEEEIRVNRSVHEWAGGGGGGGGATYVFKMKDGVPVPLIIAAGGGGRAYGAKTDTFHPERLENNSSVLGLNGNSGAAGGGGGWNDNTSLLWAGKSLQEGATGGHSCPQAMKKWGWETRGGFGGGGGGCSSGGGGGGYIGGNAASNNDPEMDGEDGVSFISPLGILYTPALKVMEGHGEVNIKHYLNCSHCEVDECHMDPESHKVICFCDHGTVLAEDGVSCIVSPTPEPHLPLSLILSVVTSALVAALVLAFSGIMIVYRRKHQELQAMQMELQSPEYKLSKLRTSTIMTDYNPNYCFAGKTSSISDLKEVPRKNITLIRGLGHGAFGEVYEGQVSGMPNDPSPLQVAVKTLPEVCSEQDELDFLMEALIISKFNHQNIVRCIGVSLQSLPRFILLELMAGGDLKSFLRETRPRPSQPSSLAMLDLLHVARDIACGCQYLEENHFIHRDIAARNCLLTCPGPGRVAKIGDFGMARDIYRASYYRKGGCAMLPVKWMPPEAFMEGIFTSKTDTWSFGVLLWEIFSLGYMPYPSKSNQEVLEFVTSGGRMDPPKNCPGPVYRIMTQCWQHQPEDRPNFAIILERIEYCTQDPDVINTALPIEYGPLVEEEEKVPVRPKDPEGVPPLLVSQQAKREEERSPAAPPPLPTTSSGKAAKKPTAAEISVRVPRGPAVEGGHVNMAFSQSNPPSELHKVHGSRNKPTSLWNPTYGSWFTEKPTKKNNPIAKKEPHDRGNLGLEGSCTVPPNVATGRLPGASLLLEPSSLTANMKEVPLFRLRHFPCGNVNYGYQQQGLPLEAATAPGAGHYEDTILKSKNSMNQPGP

As for `COCCN1C2CCC1c1cc(Nc3ncc(Cl)c(Nc4ccccc4NS(C)(=O)=O)n3)ccc1C2` (centres unmarked) [Example 76, N-(2-{5-Chloro-2-[12-(2-methoxy-ethyl)-12-aza-tricyclo[7.2.1.0*2,7*]dodeca-2(7),3,5-trien-4-ylamino]-pyrimidin-4-ylamino}-phenyl)-methanesulfonamide], the IC50 is below 0.1 µM in experiment [1] (setting [3]) and 0.1 to 1 µM in experiment [2] (setting [4]).

As for `COc1cc2c(cc1Nc1ncc(Cl)c(Nc3ccccc3S(=O)(=O)N(C)C)n1)CCN(CC(=O)N1CCOCC1)CC2` [Example 1525, 2-{5-Chloro-2-[8-methoxy-3-(2-morpholin-4-yl-2-oxo-ethyl)-2,3,4,5-tetrahydro-1H-3-benzazepin-7-ylamino]-pyrimidin-4-ylamino}-N,N-dimethyl-benzenesulfonamide], the figures for the IC50 in experiment [1] (setting [5]) and in experiment [2] (setting [6]) were below 0.1 µM and above 10 µM, respectively.

For the molecule `CCN1C(=O)CCCc2c1ccc(Nc1ncc(Cl)c(N[C@@H]3CCCC[C@H]3NS(C)(=O)=O)n1)c2OC` [Example 120, N-{(1R,2R)-2-[5-Chloro-2-(1-ethyl-6-methoxy-2-oxo-2,3,4,5-tetrahydro-1H-benzo[b]azepin-7-ylamino)-pyrimidin-4-ylamino]-cyclohexyl}-methanesulfonamide], the IC50 in experiment [1] (setting [3]) was below 0.1 µM; in experiment [2] (setting [4]), above 10 µM.

Regarding `Cc1ccc(-c2ccccc2Nc2nc(Nc3ccc4c(c3)C(C)(C)CCC(=O)N4)ncc2Cl)nc1` [Example 1003, 7-{5-Chloro-4-[2-(5-methyl-pyridin-2-yl)-phenylamino]-pyrimidin-2-ylamino}-5,5-dimethyl-1,3,4,5-tetrahydro-benzo[b]azepin-2-one], the IC50 is 1 to 10 µM in experiment [1] (setting [7]) and above 10 µM in experiment [2] (setting [8]).

For the molecule `COCCN1CCc2ccc(Nc3ncc(Cl)c(Nc4c(F)cccc4C(N)=O)n3)cc2CC1` [Example 1257, 2-{5-Chloro-2-[3-(2-methoxy-ethyl)-2,3,4,5-tetrahydro-1H-3-benzazepin-7-ylamino]-pyrimidin-4-ylamino}-3-fluoro-benzamide], the IC50 in experiment [1] (setting [9]) is below 0.1 µM; in experiment [2] (setting [10]), 0.1 to 1 µM.

For `CN1CCNCc2ccc(Nc3ncc(Cl)c(Nc4ccccc4NS(C)(=O)=O)n3)cc21` [Example 471, N-{2-[5-Chloro-2-(1-methyl-2,3,4,5-tetrahydro-1H-benzo[e][1,4]diazepin-8-ylamino)-pyrimidin-4-ylamino]-phenyl}-methanesulfonamide hydrochloride], the results for the IC50 in experiment [1] (setting [3]) and in experiment [2] (setting [4]) were below 0.1 µM and 1 to 10 µM, respectively.

In the case of `CNC(=O)c1cccc(F)c1Nc1nc(Nc2ccc3c(c2)CCCC(=O)N3CCOC)ncc1Br` [Example 1472, 2-{5-Bromo-2-[1-(2-methoxy-ethyl)-2-oxo-2,3,4,5-tetrahydro-1H-benzo[b]azepin-7-ylamino]-pyrimidin-4-ylamino}-3-fluoro-N-methyl-benzamide], the IC50 in experiment [1] (setting [5]) and in experiment [2] (setting [6]) was below 0.1 µM each time.

Turning to `COc1cc2c(cc1Nc1ncc(C(F)(F)F)c(N[C@H]3[C@@H](C(N)=O)[C@@H]4C=C[C@H]3C4)n1)CCN(CC(=O)N(C)C)CC2` [Example 933, (1S,2S,3R,4R)-3-[2-(3-Dimethylcarbamoylmethyl-8-methoxy-2,3,4,5-tetrahydro-1H-3-benzazepin-7-ylamino)-5-trifluoromethyl-pyrimidin-4-ylamino]-bicyclo[2.2.1]hept-5-ene-2-carboxylic acid amide], the IC50 in experiment [1] (setting [7]) was below 0.1 µM; in experiment [2] (setting [8]), 1 to 10 µM.

In the case of `COc1c(Nc2ncc(Cl)c(N[C@H]3[C@@H](C(N)=O)[C@@H]4C=C[C@H]3C4)n2)ccc2c1C(=O)C[C@@H](NC(C)=O)CC2` [Example 632, (1S,2S,3R,4R)-3-[2-((S)-7-Acetylamino-1-methoxy-9-oxo-6,7,8,9-tetrahydro-5H-benzocyclohepten-2-ylamino)-5-chloro-pyrimidin-4-ylamino]-bicyclo[2.2.1]hept-5-ene-2-carboxylic acid amide], the figures for the IC50 in experiment [1] (setting [7]) and in experiment [2] (setting [8]) were 0.1 to 1 µM and above 10 µM, respectively.

On to `CCN1CCc2cc(Nc3ncc(Cl)c(N[C@H]4[C@@H](C(N)=O)[C@@H]5C=C[C@H]4C5)n3)c(OC)cc2CC1` [Example 773, (1S,2S,3R,4R)-3-[5-Chloro-2-(3-ethyl-8-methoxy-2,3,4,5-tetrahydro-1H-benzo[d]azepin-7-ylamino)-pyrimidin-4-ylamino]-bicyclo[2.2.1]hept-5-ene-2-carboxylic acid amide], for which the IC50 was below 0.1 µM in experiment [1] (setting [7]) and above 10 µM in experiment [2] (setting [8]).

Take `CC1(C)CCCOc2c(Nc3ncc(Cl)c(Nc4ccccc4C(=O)NCCC#N)n3)cccc21` [Example 877, 2-[5-Chloro-2-(5,5-dimethyl-2,3,4,5-tetrahydro-benzo[b]oxepin-9-ylamino)-pyrimidin-4-ylamino]-N-(2-cyano-ethyl)-benzamide]: the figures for the IC50 in experiment [1] (setting [7]) and in experiment [2] (setting [8]) were 0.1 to 1 µM and above 10 µM, respectively.

With `CCN1C(=O)CN(C(C)=O)Cc2ccc(Nc3ncc(Cl)c(Nc4c(Cl)cccc4C(=O)NC)n3)cc21` [Example 1854, 2-[2-(4-Acetyl-1-ethyl-2-oxo-2,3,4,5-tetrahydro-1H-benzo[e][1,4]diazepin-8-ylamino)-5-chloro-pyrimidin-4-ylamino]-3-chloro-N-methyl-benzamide], the IC50 in experiment [1] (setting [5]) was 0.1 to 1 µM; in experiment [2] (setting [6]) it was below 0.1 µM.

Turning to `CCN1CCCOc2cc(Nc3ncc(Cl)c(Nc4c(F)cccc4C(=O)NC)n3)c(F)cc21` [Example 1691, 2-[5-Chloro-2-(9-ethyl-2-fluoro-6,7,8,9-tetrahydro-5-oxa-9-aza-benzocyclohepten-3-ylamino)-pyrimidin-4-ylamino]-3-fluoro-N-methyl-benzamide], the IC50 in experiment [1] (setting [5]) and in experiment [2] (setting [6]) was below 0.1 µM in each case.

Take `COc1cc2c(cc1Nc1ncc(Cl)c(Nc3ccc(N4CCOCC4)c(OC)c3)n1)CCN(CC(=O)N(C)C)CC2` [Example 803, 2-{7-[5-Chloro-4-(3-methoxy-4-morpholin-4-yl-phenylamino)-pyrimidin-2-ylamino]-8-methoxy-1,2,4,5-tetrahydro-benzo[d]azepin-3-yl}-N,N-dimethyl-acetamide]: the IC50 was below 0.1 µM in experiment [1] (setting [7]) and above 10 µM in experiment [2] (setting [8]).

As to `CN1C(=O)CCCc2cc(Nc3ncc(Cl)c(Nc4ccc5[nH]c(C(F)(F)F)nc5c4)n3)ccc21` [Example 1016, 7-[5-Chloro-4-(2-trifluoromethyl-1H-benzoimidazol-5-ylamino)-pyrimidin-2-ylamino]-1-methyl-1,3,4,5-tetrahydro-benzo[b]azepin-2-one], the IC50 in experiment [1] (setting [9]) lay within 0.1 to 1 µM; in experiment [2] (setting [10]), 1 to 10 µM.

As to `COCCN1CCc2ccc(Nc3ncc(Cl)c(Nc4ccccc4C(=O)NC(C)C)n3)cc2CC1` [Example 342, 2-{5-Chloro-2-[3-(2-methoxy-ethyl)-2,3,4,5-tetrahydro-1H-benzo[d]azepin-7-ylamino]-pyrimidin-4-ylamino}-N-isopropyl-benzamide], the figures for the IC50 in experiment [1] (setting [3]) and in experiment [2] (setting [4]) were below 0.1 µM and 0.1 to 1 µM, respectively.

Take `COc1cc2c(cc1Nc1ncc(Cl)c(Nc3ccccc3S(=O)(=O)N3CC[C@H](O)C3)n1)CCN(CC(C)(C)O)CC2` [Example 1562, (S)-1-(2-{5-Chloro-2-[3-(2-hydroxy-2-methyl-propyl)-8-methoxy-2,3,4,5-tetrahydro-1H-3-benzazepin-7-ylamino]-pyrimidin-4-ylamino}-benzenesulfonyl)-pyrrolidin-3-ol]: the IC50 is below 0.1 µM in experiment [1] (setting [5]) and 0.1 to 1 µM in experiment [2] (setting [6]).

In the case of `CNC(=O)c1ccccc1Nc1nc(Nc2ccc3c(c2)N(C)C(=O)CCC3)ncc1Cl` [Example 108, 2-[5-Chloro-2-(1-methyl-2-oxo-2,3,4,5-tetrahydro-1H-benzo[b]azepin-8-ylamino)-pyrimidin-4-ylamino]-N-methyl-benzamide], the IC50 in experiment [1] (setting [3]) and in experiment [2] (setting [4]) was below 0.1 µM in each case.

`CCS(=O)(=O)N[C@@H]1CCCC[C@H]1Nc1nc(Nc2ccc3c(c2)CCN(CCOC)CC3)ncc1Cl` [Example 453, Ethanesulfonic acid ((1R,2R)-2-{5-chloro-2-[3-(2-methoxy-ethyl)-2,3,4,5-tetrahydro-1H-benzo[d]azepin-7-ylamino]-pyrimidin-4-ylamino}-cyclohexyl)-amide]: the IC50 in experiment [1] (setting [3]) is below 0.1 µM; in experiment [2] (setting [4]), 1 to 10 µM.

With `COCCN1CCc2ccc(Nc3ncc(Cl)c(Nc4c(C)cccc4OCC#N)n3)cc2CC1` [Example 1245, (2-{5-Chloro-2-[3-(2-methoxy-ethyl)-2,3,4,5-tetrahydro-1H-3-benzazepin-7-ylamino]-pyrimidin-4-ylamino}-3-methyl-phenoxy)-acetonitrile], the IC50 in experiment [1] (setting [9]) and in experiment [2] (setting [10]) was 0.1 to 1 µM throughout.

On to `CNC(=O)c1ccccc1Nc1nc(Nc2ccc3c(c2)N(C(=O)CN2CCCC2)CCCO3)ncc1Cl` [Example 1706, 2-{5-Chloro-2-[9-(2-pyrrolidin-1-yl-acetyl)-6,7,8,9-tetrahydro-5-oxa-9-aza-benzocyclohepten-2-ylamino]-pyrimidin-4-ylamino}-N-methyl-benzamide], for which the IC50 in experiment [1] (setting [5]) and in experiment [2] (setting [6]) was 0.1 to 1 µM in each case.

Take `COCCNC1CCc2cc(Nc3ncc(Cl)c(Nc4ccccc4-n4cccn4)n3)c(OC)cc2CC1` (centres unmarked) [Example 1085, 5-Chloro-N*2*-[3-methoxy-7-(2-methoxy-ethylamino)-6,7,8,9-tetrahydro-5H-benzocyclohepten-2-yl]-N*4*-(2-pyrazol-1-yl-phenyl)-pyrimidine-2,4-diamine]: the results for the IC50 in experiment [1] (setting [9]) and in experiment [2] (setting [10]) were below 0.1 µM and above 10 µM, respectively.
